Where a SMILES comes first, the peptide text is derived from it.
Tests used:
[1] = molecular target: T1, EV71-2A^pro (Human enterovirus 71, UniProt Q66478); assay: EV71-2Apro inhibition assay; format: biochemical
T1 sequence (Q66478 863-1012 limits assumed): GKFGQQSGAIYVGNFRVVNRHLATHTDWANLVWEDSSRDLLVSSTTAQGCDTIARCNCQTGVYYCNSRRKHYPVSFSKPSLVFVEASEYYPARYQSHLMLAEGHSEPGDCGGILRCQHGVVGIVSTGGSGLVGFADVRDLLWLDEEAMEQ

[2] = molecular target: T1, EV71-2A^pro; assay: Kinetic activity assay; format: biochemical; details: from Km values, relative to native substrate (Km 21.3 μM)

CC[C@H](C)[C@H](NC(=O)[C@H](CCCCN)NC(=O)[C@H](CC(=O)O)NC(=O)[C@@H](N)CCCNC(=N)N)C(=O)NCC(=O)N[C@@H](Cc1ccccc1)C(=O)N[C@@H](CCCNC(=N)N)C(=O)NCC(=O)N[C@@H](CCCCN)C(=O)N[C@@H](Cc1ccccc1)C(=O)NCC(=O)N[C@@H](CCC(N)=O)C(=O)O [Peptide II] (H-RDKIGFRGKFGQ-OH)
IC50 [1]: 12.1 ± 1.2 µM

Dabcyl-RDKIGFRGKFGQDE-Edans-NH2 [Pseudosubstrate II]
higher affinity for EV71-2A^pro than the native substrate [2]: 3 fold
